According to patent publication US4567143A, “Process for preparing 4'-deschlororebeccamycin” (Bristol-Myers Company, priority 1985, dated 1986):
≈ marks a conversion by molar mass, not a printed value.

Tests used:
[1] = system: List. monocytogenes A15121; experiment: Antibacterial activity, serial two-fold agar dilution; assay type: cell-based; conditions: Listeria monocytogenes, read-out: Minimum Inhibitory Concentration (MIC)
Experimental: (§1) The antibacterial activity of 4'-deschlororebeccamycin was determined against a number of gram-positive and gram-negative organisms by the serial two-fold agar dilution method. The results are shown in Table 5 below in comparison with the activity of rebeccamycin.

K. pneumoniae A20468 = experiment: as above; assay type: cell-based; conditions: Klebsiella pneumoniae, read-out: Minimum Inhibitory Concentration (MIC)
Experimental: as §1

P. aeruginosa A9843A = experiment: as above; assay type: cell-based; conditions: Pseudomonas aeruginosa, read-out: Minimum Inhibitory Concentration (MIC)
Experimental: as §1

S. pyogenes A9604 = experiment: as above; assay type: cell-based; conditions: Streptococcus pyogenes, read-out: Minimum Inhibitory Concentration (MIC)
Experimental: as §1

P. rettgeri A22424 = experiment: as above; assay type: cell-based; conditions: Providencia rettgeri, read-out: Minimum Inhibitory Concentration (MIC)
Experimental: as §1

K. pneumoniae A9664 = experiment: as above; assay type: cell-based; conditions: Klebsiella pneumoniae, read-out: Minimum Inhibitory Concentration (MIC)
Experimental: as §1

M. luteus A9547 = experiment: as above; assay type: cell-based; conditions: Micrococcus luteus, read-out: Minimum Inhibitory Concentration (MIC)
Experimental: as §1

S. marcescens A20019 = experiment: as above; assay type: cell-based; conditions: Serratia marcescens, read-out: Minimum Inhibitory Concentration (MIC)
Experimental: as §1

S. coli A15119 = experiment: as above; assay type: cell-based; conditions: read-out: Minimum Inhibitory Concentration (MIC)
Experimental: as §1

[2] = system: S. aureus (Pen-Res) A9606; experiment: as above; assay type: cell-based; conditions: Staphylococcus aureus, read-out: Minimum Inhibitory Concentration (MIC)
Experimental: as §1

S. faecalis A20688 = experiment: as above; assay type: cell-based; conditions: Enterococcus faecalis, read-out: Minimum Inhibitory Concentration (MIC)
Experimental: as §1

P. mirabilis A9900 = experiment: as above; assay type: cell-based; conditions: Proteus mirabilis, read-out: Minimum Inhibitory Concentration (MIC)
Experimental: as §1

M. morganii A15153 = experiment: as above; assay type: cell-based; conditions: Morganella morganii, read-out: Minimum Inhibitory Concentration (MIC)
Experimental: as §1

S. coli A20341-1 = experiment: as above; assay type: cell-based; conditions: read-out: Minimum Inhibitory Concentration (MIC)
Experimental: as §1

S. aureus A9537 = experiment: as above; assay type: cell-based; conditions: Staphylococcus aureus, read-out: Minimum Inhibitory Concentration (MIC)
Experimental: as §1

E. cloacae A9656 = experiment: as above; assay type: cell-based; conditions: Enterobacter cloacae, read-out: Minimum Inhibitory Concentration (MIC)
Experimental: as §1

P. aeruginosa A21213 = experiment: as above; assay type: cell-based; conditions: Pseudomonas aeruginosa, read-out: Minimum Inhibitory Concentration (MIC)
Experimental: as §1

S. pneumoniae A9585 = experiment: as above; assay type: cell-based; conditions: Streptococcus pneumoniae, read-out: Minimum Inhibitory Concentration (MIC)
Experimental: as §1

P. vulgaris A21559 = experiment: as above; assay type: cell-based; conditions: Proteus vulgaris, read-out: Minimum Inhibitory Concentration (MIC)
Experimental: as §1

[3] = system: List. monocytogenes A20025; experiment: as above; assay type: cell-based; conditions: Listeria monocytogenes, read-out: Minimum Inhibitory Concentration (MIC)
Experimental: as §1

E. cloacae A9659 = experiment: as above; assay type: cell-based; conditions: Enterobacter cloacae, read-out: Minimum Inhibitory Concentration (MIC)
Experimental: as §1

P-388 leukemia = experiment: Effect on transplanted mouse leukemia P-388; assay type: in vivo, mouse (CDF1 F mice); conditions: IP, single injection day 1; for MST % T/C: >125 considered significant tumor inhibition; for Average weight change, day 5: control 0.6; for MST (median survival time): control 11.0
Experimental: 4'-Deschlororebeccamycin was also tested against the transplanted mouse leukemia P-388 and the results are shown below in Table 6. The methodology used generally followed the protocols of the National Cancer Institute [Cancer Chemotherapy Rep. Part 3, 3, 1-103 (1972)]. The essential experimental details are given at the bottom of Table 6.
Tumor inoculum: 10^6 ascites cells, ip
Treatment: Single injection on day 1 given i.p.
Evaluation: MST = median survival time
Effect: % T/C = (MST treated/MST control) × 100
Criteria: % T/C >125 considered significant tumor inhibition
Control: Saline (0.5 ml) given once daily i.p. for 5 days

[4] = system: gram-positive and gram-negative organisms; experiment: Antimicrobial activity (general statement); assay type: cell-based
Experimental: as §1

Solubility = assay type: physicochemical

COC1C(CO)OC(n2c3c(Cl)cccc3c3c4c(c5c6ccccc6[nH]c5c32)C(=O)NC4=O)C(O)C1O (stereo not drawn) [4'-Deschlororebeccamycin]
MIC [1]: 32 µg/mL (≈ 59.7 µM) | MIC (K. pneumoniae A20468): > 250 µg/mL | MIC (P. aeruginosa A9843A): > 250 µg/mL | MIC (S. pyogenes A9604): 32 µg/mL (≈ 59.7 µM) | MIC (P. rettgeri A22424): > 250 µg/mL | MIC (K. pneumoniae A9664): > 250 µg/mL | MIC (M. luteus A9547): 1 µg/mL (≈ 1.87 µM) | MIC (S. marcescens A20019): > 250 µg/mL | MIC (S. coli A15119): > 250 µg/mL | MIC [2]: > 250 µg/mL | MIC (S. faecalis A20688): 16 µg/mL (≈ 29.9 µM) | MIC (P. mirabilis A9900): > 250 µg/mL | MIC (M. morganii A15153): > 250 µg/mL | MIC (S. coli A20341-1): > 250 µg/mL | MIC (S. aureus A9537): 2 µg/mL (≈ 3.73 µM) | MIC (E. cloacae A9656): > 250 µg/mL | MIC (P. aeruginosa A21213): > 250 µg/mL | MIC (S. pneumoniae A9585): 32 µg/mL (≈ 59.7 µM) | MIC (P. vulgaris A21559): > 250 µg/mL | MIC [3]: 63 µg/mL (≈ 118 µM) | MIC (E. cloacae A9659): > 250 µg/mL | MST % T/C (P-388 leukemia; 16 mg/kg/inj): 164% | Average weight change, day 5 (P-388 leukemia; 16 mg/kg/inj): -0.9 gm | MST (median survival time) (P-388 leukemia; 16 mg/kg/inj): 18.0 days | MST % T/C (P-388 leukemia; 32 mg/kg/inj): 141% | Average weight change, day 5 (P-388 leukemia; 32 mg/kg/inj): -0.8 gm | MST (median survival time) (P-388 leukemia; 32 mg/kg/inj): 15.5 days | MST % T/C (P-388 leukemia; 64 mg/kg/inj): 136% | Average weight change, day 5 (P-388 leukemia; 64 mg/kg/inj): -0.8 gm | MST (median survival time) (P-388 leukemia; 64 mg/kg/inj): 15.0 days | MST % T/C (P-388 leukemia; 128 mg/kg/inj): 159% | Average weight change, day 5 (P-388 leukemia; 128 mg/kg/inj): -0.6 gm | MST (median survival time) (P-388 leukemia; 128 mg/kg/inj): 17.5 days | MST % T/C (P-388 leukemia; 256 mg/kg/inj): 136% | Average weight change, day 5 (P-388 leukemia; 256 mg/kg/inj): -1.5 gm | MST (median survival time) (P-388 leukemia; 256 mg/kg/inj): 15.0 days | MST % T/C (P-388 leukemia; 512 mg/kg/inj): 141% | Average weight change, day 5 (P-388 leukemia; 512 mg/kg/inj): -1.0 gm | MST (median survival time) (P-388 leukemia; 512 mg/kg/inj): 15.5 days | antimicrobial activity [4]: exhibits antimicrobial activity | solubility in dimethylsulfoxide (Solubility; dimethylsulfoxide): soluble | solubility in water (Solubility; water): insoluble

CO[C@H]1[C@H](O)[C@@H](O)[C@H](n2c3c(Cl)cccc3c3c4c(c5c6cccc(Cl)c6[nH]c5c32)C(=O)NC4=O)O[C@@H]1CO [Rebeccamycin]
MIC [1]: 32 µg/mL (≈ 56.1 µM) | MIC (K. pneumoniae A20468): > 250 µg/mL | MIC (P. aeruginosa A9843A): > 250 µg/mL | MIC (S. pyogenes A9604): > 125 µg/mL | MIC (P. rettgeri A22424): > 250 µg/mL | MIC (K. pneumoniae A9664): > 250 µg/mL | MIC (M. luteus A9547): 0.5 µg/mL (≈ 0.877 µM) | MIC (S. marcescens A20019): > 250 µg/mL | MIC (S. coli A15119): > 250 µg/mL | MIC [2]: > 250 µg/mL | MIC (S. faecalis A20688): 8 µg/mL (≈ 14 µM) | MIC (P. mirabilis A9900): > 250 µg/mL | MIC (M. morganii A15153): > 250 µg/mL | MIC (S. coli A20341-1): > 250 µg/mL | MIC (S. aureus A9537): 0.5 µg/mL (≈ 0.877 µM) | MIC (E. cloacae A9656): > 250 µg/mL | MIC (P. aeruginosa A21213): > 250 µg/mL | MIC (S. pneumoniae A9585): > 125 µg/mL | MIC (P. vulgaris A21559): > 250 µg/mL | MIC [3]: 32 µg/mL (≈ 56.1 µM) | MIC (E. cloacae A9659): > 250 µg/mL | MST % T/C (P-388 leukemia; 16 mg/kg/inj): 136% | Average weight change, day 5 (P-388 leukemia; 16 mg/kg/inj): -0.8 gm | MST (median survival time) (P-388 leukemia; 16 mg/kg/inj): 15.0 days | MST % T/C (P-388 leukemia; 32 mg/kg/inj): 118% | Average weight change, day 5 (P-388 leukemia; 32 mg/kg/inj): -0.6 gm | MST (median survival time) (P-388 leukemia; 32 mg/kg/inj): 13.0 days | MST % T/C (P-388 leukemia; 64 mg/kg/inj): 136% | Average weight change, day 5 (P-388 leukemia; 64 mg/kg/inj): 0.3 gm | MST (median survival time) (P-388 leukemia; 64 mg/kg/inj): 15.0 days | MST % T/C (P-388 leukemia; 128 mg/kg/inj): 132% | Average weight change, day 5 (P-388 leukemia; 128 mg/kg/inj): 0.2 gm | MST (median survival time) (P-388 leukemia; 128 mg/kg/inj): 14.5 days | MST % T/C (P-388 leukemia; 256 mg/kg/inj): 136% | Average weight change, day 5 (P-388 leukemia; 256 mg/kg/inj): -0.3 gm | MST (median survival time) (P-388 leukemia; 256 mg/kg/inj): 15.0 days | MST % T/C (P-388 leukemia; 512 mg/kg/inj): 155% | Average weight change, day 5 (P-388 leukemia; 512 mg/kg/inj): -1.4 gm | MST (median survival time) (P-388 leukemia; 512 mg/kg/inj): 17.0 days
